In experiment [1] the target is T1, Adenosine receptor A3 (Homo sapiens) (UniProt P0DMS8).
T1 sequence (whole entry): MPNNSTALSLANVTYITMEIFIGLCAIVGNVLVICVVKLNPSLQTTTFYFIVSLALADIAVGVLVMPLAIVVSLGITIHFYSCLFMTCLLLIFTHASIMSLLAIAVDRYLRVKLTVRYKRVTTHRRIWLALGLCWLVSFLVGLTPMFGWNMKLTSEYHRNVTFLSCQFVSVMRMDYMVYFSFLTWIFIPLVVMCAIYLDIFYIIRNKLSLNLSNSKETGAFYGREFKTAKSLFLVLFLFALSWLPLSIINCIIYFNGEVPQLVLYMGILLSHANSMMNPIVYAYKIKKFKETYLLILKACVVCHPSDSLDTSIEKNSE
Put plainly: Ability to displace [125I]-AB-MECA binding from adenosine A3 receptor.

Experiment [2] deals with T2, Adenosine receptor A1 (Rattus norvegicus) (UniProt P25099).
T2 sequence (whole entry): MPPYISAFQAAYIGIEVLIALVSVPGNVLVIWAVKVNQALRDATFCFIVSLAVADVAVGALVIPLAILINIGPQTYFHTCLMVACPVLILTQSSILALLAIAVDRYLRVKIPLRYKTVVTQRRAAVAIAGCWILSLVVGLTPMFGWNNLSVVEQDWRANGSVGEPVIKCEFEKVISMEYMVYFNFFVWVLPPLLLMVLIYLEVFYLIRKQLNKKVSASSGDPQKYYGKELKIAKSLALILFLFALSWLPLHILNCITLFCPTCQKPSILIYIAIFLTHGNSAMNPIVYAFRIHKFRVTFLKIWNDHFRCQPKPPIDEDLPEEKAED
The experiment is described as follows: Ability to displace [3H]N6-phenylisopropyladenosine binding from adenosine A1 receptor.

Experiment [3] addresses Adenosine receptor A2a (Rattus norvegicus) (UniProt P30543). Put plainly: Ability to displace [3H]-CGS- 21680 binding from adenosine A2A receptor.

Several values for one entry are separate records, joined by “and”; a condition that tells them apart may be missing. Identical values can stand only once.

Adenosine receptor A2a (Rattus norvegicus), sequence (P30543 whole entry): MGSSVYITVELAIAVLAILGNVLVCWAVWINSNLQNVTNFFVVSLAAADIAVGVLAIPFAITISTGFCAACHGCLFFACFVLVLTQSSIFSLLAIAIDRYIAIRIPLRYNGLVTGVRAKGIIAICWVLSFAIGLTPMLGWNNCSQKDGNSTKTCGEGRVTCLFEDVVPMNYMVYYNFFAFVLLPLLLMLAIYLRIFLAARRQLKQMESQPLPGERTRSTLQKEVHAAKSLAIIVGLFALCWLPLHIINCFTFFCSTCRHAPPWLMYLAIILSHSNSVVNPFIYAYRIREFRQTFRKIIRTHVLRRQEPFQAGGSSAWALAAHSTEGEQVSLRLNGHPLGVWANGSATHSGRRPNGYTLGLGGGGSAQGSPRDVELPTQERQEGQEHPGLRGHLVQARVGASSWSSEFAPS

`COc1ccc2oc(C#Cc3ccccc3)c(O)c(=O)c2c1` displayed a pKi(uM) in experiment [1] of -1.38.
Consider `COc1ccc2c(=O)c(O)c(-c3ccc(O)c(O)c3)oc2c1`, for which, in experiment [1], the pKi(uM) is -0.14.
Regarding `COc1cc(OC)c2c(=O)c(OC)c(-c3ccccc3)oc2c1`, the pKi(uM) in experiment [1] was 0.08 and -0.09; in experiment [2], 0.29; in experiment [3] it was -0.81.
In experiment [1], `CCOc1ccc(-c2oc3cc(OCC)cc(O)c3c(=O)c2OCC)c(OCC)c1` gave a pKi(uM) of -0.68.
For the molecule `CCOc1c2ccoc2cc2oc(/C=C/c3ccccc3)cc(=O)c12`, the pKi(uM) was -0.06 in experiment [1], -1.55 in experiment [2] and -1.53 in experiment [3].
As for `CCOc1cc(O)c2c(=O)c(OCC)c(-c3ccccc3)oc2c1`, the pKi(uM) in experiment [1] is 0.13; in experiment [3] it was -1.8.
Consider `O=C1CC(c2ccccc2O)Oc2ccccc21` (stereo unspecified), for which the pKi(uM) in experiment [1] is -0.78; in experiment [2], -0.42; in experiment [3] it was -1.25.
Consider `COc1c2ccoc2cc2oc(/C=N/c3ccccc3)cc(=O)c12`, for which, in experiment [1], the pKi(uM) was -0.96.
As to `CC(=O)Oc1cc(OC(C)=O)c2c(c1)OC(c1ccccc1)C(OC(C)=O)C2=O` (stereo unspecified), the pKi(uM) in experiment [3] was -1.75.
Turning to `COc1ccc(-c2oc3cc(OC)cc(OC)c3c(=O)c2OC)cc1`, the pKi(uM) was -0.53 in experiment [1] and -0.03 in experiment [2].
For `COc1ccc2c(c1)C(=O)C(O)C(C#Cc1ccccc1)O2` (stereo unspecified) the same measures were -0.91 and -1.7.
As to `O=c1cc(-c2ccccc2)oc2cc(O)ccc12`, the pKi(uM) in experiment [2] was -0.48; in experiment [3], -0.43.
`O=c1c(O)c(-c2ccc(O)c(O)c2)oc2cc(O)cc(O)c12`: in experiment [3], the pKi(uM) is -0.84.
On the same count and under the same terms, the result for `O=c1cc(-c2ccccc2)oc2cccc(O)c12` reads -0.79.
On to `COc1cc(O)c2c(c1)OC(c1ccc(O)cc1)CC2=O` (stereo unspecified), for which the pKi(uM) was -0.53 in experiment [1], -0.91 in experiment [2] and -1.55 in experiment [3].
In the same order, the values of `CCOc1cc(OCC)c2c(=O)c(OCC)c(-c3ccccc3)oc2c1` are 0.44, 0.22 and -0.52.
Consider `O=c1cc(-c2ccc(O)cc2)oc2cc(O)cc(O)c12`, for which the pKi(uM) in experiment [2] was -0.48; in experiment [3], -0.88.
Consider `COc1c(O)cc2oc(-c3ccc(O)cc3)cc(=O)c2c1O`, for which the values for the pKi(uM) in experiment [2] and in experiment [3] were -0.21 and -0.88, respectively.
`COC1(OC)Cc2oc(-c3ccc(O)cc3O)c(CC=C(C)C)c(=O)c2C(O)=C1/C=C/C(C)C`: the pKi(uM) in experiment [1] was -0.66.
As to `COc1cc2oc(-c3ccc(O)cc3)cc(=O)c2c(O)c1OC`, the pKi(uM) in experiment [1] was -0.5; in experiment [2], -0.08; in experiment [3] it was -0.48.
On to `CCOc1ccc(-c2oc3cc(OCC)cc(OCC)c3c(=O)c2OCC)c(OCC)c1`, for which the pKi(uM) in experiment [1] was -0.86; in experiment [3], -1.42.
Take `COc1c2ccoc2cc2oc(/C=C/c3ccccc3)cc(=O)c12`: the pKi(uM) was -0.92 in experiment [1], -1.51 in experiment [2] and -1.06 in experiment [3].
`CCOc1c(-c2c(C)cc(C)cc2C)oc2ccc(Cl)cc2c1=O` yielded a pKi(uM) in experiment [1] of -0.72.
On to `O=c1c(Cl)c(-c2ccccc2)oc2ccccc12`, for which the pKi(uM) was -1.06 in experiment [1] and -1.4 in experiment [3].
In the case of `O=C1CC(c2ccccc2)Oc2ccccc21` (stereo unspecified), the pKi(uM) in experiment [1] was -1.21.
In the case of `O=c1c(Cl)c(-c2ccccc2)oc2ccc(Cl)cc12`, the pKi(uM) in experiment [3] is -1.74.
Consider `O=c1cc(-c2ccccc2)oc2c1ccc1ccccc12`, for which the pKi(uM) was 0.1 in experiment [2] and -0.12 in experiment [3].
As for `COc1ccc2c(c1)C(=O)C(O)C(/C=C/c1ccccc1)O2` (stereo unspecified), the pKi(uM) in experiment [1] was -1.32.
`COc1ccc(-c2cc(=O)c3c(O)cc(C)cc3o2)cc1`: the pKi(uM) in experiment [1] was -1.7; in experiment [2] it was -0.53; in experiment [3], -1.45.
`CC(=O)Oc1cc(OC(C)=O)c2c(=O)c(OC(C)=O)c(-c3ccccc3)oc2c1`: the results for the pKi(uM) in experiment [1] and in experiment [2] were -1.24 and -1.06, respectively.
Molecule `O=c1c(O)c(-c2ccccc2)oc2cc(O)cc(O)c12` returned a pKi(uM) in experiment [1] of -0.23.
In the case of `COc1cc(OC)c2c(=O)c(OC)c(-c3cc(OC)c(OC)c(OC)c3)oc2c1`, the pKi(uM) in experiment [1] is -0.82.
With `CCOc1c2ccoc2cc2oc(/C=C/C=C/c3ccccc3)cc(=O)c12`, the figures for the pKi(uM) in experiment [1] and in experiment [3] were -1.66 and -2.22, respectively.
On to `COc1ccc(-c2cc(=O)c3c(OC)c(OC)c(OC)cc3o2)cc1`, for which the pKi(uM) in experiment [1] was -0.65; in experiment [2], -0.11.
Regarding `O=c1cc(-c2ccccc2)oc2ccccc12`, the pKi(uM) is -1.23 in experiment [1], -0.52 in experiment [2] and -0.54 in experiment [3].
As for `COc1c2ccoc2cc2oc(C=O)cc(=O)c12`, in experiment [1], the pKi(uM) is -1.95.
Turning to `O=C1c2ccccc2OC(c2ccccc2O)C1O` (stereo unspecified), the pKi(uM) in experiment [2] was -1.96.
As for `Cc1ccc(-c2oc3ccc(Cl)cc3c(=O)c2Cl)c(C(C)C)c1`, in experiment [1], the pKi(uM) turned out to be 0.25.
As to `COc1ccc(-c2cc(=O)c3ccc(O)cc3o2)cc1OC`, the pKi(uM) in experiment [2] is -1.27; in experiment [3] it was -1.54.
As to `O=C1CC(c2ccc(O)cc2)Oc2ccccc21` (stereo unspecified), the pKi(uM) in experiment [1] is -1.36; in experiment [2] it was -1.06.
As to `COc1cc(OC)c(-c2oc3ccccc3c(=O)c2O)c(OC)c1`, the pKi(uM) in experiment [1] was -1.7; in experiment [2] it was -0.86.
On to `COc1c2ccoc2cc2oc(C)cc(=O)c12`, for which the pKi(uM) in experiment [1] is -1.78; in experiment [3], -1.63.

(Values after ChEMBL document CHEMBL1131204, “Flavonoid derivatives as adenosine receptor antagonists: a comparison of the hypothetical receptor binding site based on a comparative molecular field analysis model” (J Med Chem, 1998).)
